Reference: patent US8992891B2, “Therapeutic approaches for treating CMT and related disorders” (Pharnext, priority 2007, dated 2015)

Columns and labels:
[1] = test system: PMP22 mRNA; test: PMP22 mRNA level by quantitative RT-PCR after drug stimulation of rat Schwann cell primary culture; format: cell-based; parameters: key: +: significantly decreases PMP22 levels compared to control; settings: rat primary Schwann cells, drug incubation 24 hrs
Experimental: After cells being platted in 12 well-dishes, the medium is replaced by a defined medium consisting in a mix of DMEM-F12 (Invitrogen #21331020) complemented by 1% of N2 supplement (Invitrogen #17502), 1% L-Glutamine (Invitrogen #25030024) 2.5% FBS (Sciencell #0025), 0.02 μg/ml of corticosterone (Sigma #C2505), 4 μM Forskolin and 50 μg/ml of gentamycin. Growth factors are not added to this medium, to promote SC differentiation
24 hours later, the medium is replaced by a defined medium (DMEM-F12) complemented with 1% Insulin-Transferrin-Selenium-X (ITS, Invitrogen #51300), 16 μg/ml of Putrescine (Sigma #P5780), 0.02 μg/ml of corticosterone and 50 μg/ml of gentamicin. At this step, neither progesterone nor forskolin are present in the medium.
One day later, Schwann cells are stimulated by combinations of drugs or drugs alone during 24 hrs (3 wells/condition). The preparation of each compound is performed just prior to its addition to the cell culture medium.
Drugs are added to a defined medium composed of DMEM-F12, with 1% Insulin-Transferrin-Selenium-X (ITS, Invitrogen #51300), 16 μg/ml of Putrescine, 0.02 μg/ml of corticosterone, 10 nM Progesterone and 50 μg/ml of gentamicin. The absence of Forskolin during drug stimulation avoids adenylate cyclase saturation.
Quantitative RT-PCR is used to compare the levels of PMP22 mRNA after drug stimulation, relative with housekeeping Ribosomal L13A mRNA in rat Schwann cell primary culture.
After rinsing with cold sterilized PBS, total RNAs from each cell sample are extracted and purified from SC using the Qiagen RNeasy micro kit (Qiagen #74004). Nucleic acids are quantified by Nanodrop spectrophotometer using 1 μl of RNA sample. The RNA integrity is determined through a BioAnalyzer (Agilent) apparatus.
RNAs are reverse-transcribed into cDNA according to standard protocol. cDNA templates for PCR amplification are synthesized from 200 ng of total RNA using SuperScript II reverse-transcriptase (Invitrogen #18064-014) for 60 min at 42° C. in the presence of oligo(dT), in a final volume of 20 μl.
cDNAs are subjected to PCR amplification using the ? LightCycler® 480 ? system (Roche Molecular Systems Inc.) Each cDNA are diluted five times before being used for PCR amplification. 2.5 μl of this cDNAs enters the PCR reaction solution (final volume of 10 μl). Preliminary experiments ensured that quantitation was done in the exponential phase of the amplification process for both sequences and that expression of the reference gene was uniform in the different culture conditions.
PCR reaction is performed by amplification of 500 nM of forward primer of rat PMP22 (NM_017037), 5-GGAAACGCGAATGAGGC-3 (SEQ ID NO: 1), and 500 nM of reverse primer 5-GTTCTGTTTGGTTTGGCTT-3 (SEQ ID NO: 2) (amplification of 148-bp). A 152-bp fragment of the RPL13A ribosomal (NM_173340) RNA is amplified in parallel in separate reactions for normalization of the results by using 500 nM of forward primer 5-CTGCCCTCAAGGTTGTG-3 (SEQ ID NO: 3), and 500 nM of reverse primer 5-[…]-3 (SEQ ID NO: 4).
We used FRET chemistry to perform RT-Q-PCR analysis. FRET probes are composed of 0.3 μM of Pmp22-FL-5-[…] (SEQ ID NO: 5) or Rpl13A-FL-5-TCGGGTGGAAGTACCAGCC (SEQ ID NO: 6), labelled at their 3′ end with a donor fluorophore dye (Fluorescein). 0.15 μM Red640 probes are defined as follows: Pmp22-red-5′-[…]- (SEQ ID NO: 7) or Rpl13A-red-5′-[…] (SEQ ID NO: 8), labelled at their 5′ end with an acceptor fluorophore dye (Rhodamine Red 640).
Each PCR reaction contained 2.5 μl cDNA template in a final volume of 10 μl of master mix kit (Roche #04-887301001).
The following PCR conditions are used: 10 sec at 95° C., 10 sec at 63° C. and 12 sec at 72° C. and 30 sec at 40° C. (Forty amplification cycles). The relative levels of PMP22 gene expression is measured by determining the ratio between the products generated from the target gene PMP22 and the endogenous internal standard RPL13A. […]

[2] = test system: PMP22 protein; test: PMP22 protein expression analysis by flow cytometry (FACS) in Schwann cells; format: cell-based, rat; parameters: key to Protein (PMP22 expression decrease): +: significantly decreases PMP22 levels compared to control; settings: rat primary Schwann cells, FACS, 24 hrs
Experimental: One day later, Schwann cells are stimulated by combinations of drugs or drugs alone during 24 hrs (3 wells/condition). The preparation of each compound is performed just prior to its addition to the cell culture medium. Drugs are added to a defined medium composed of DMEM-F12, with 1% Insulin-Transferrin-Selenium-X (ITS, Invitrogen #51300), 16 μg/ml of Putrescine, 0.02 μg/ml of corticosterone, 10 nM Progesterone and 50 μg/ml of gentamicin. The absence of Forskolin during drug stimulation avoids adenylate cyclase saturation. 8 hrs, 24 hrs and 48 hrs after drugs incubation, supernatants are recovered, centrifuged and frozen. SC are detached with trypsin-EDTA. As soon as the majority of cells are in suspension, the trypsin is neutralised using DMEM with 10% FCS. Supernatants with cells are recovered and centrifuged. The pellets of cells are transferred in micro tubes, washed in PBS once and fixed with a specific solution (AbCys #Reagent A BUF09B). 10 minutes later, cells are rinsed once with PBS and kept at 4° C. Five days after cell fixation, all cell preparations with different incubation times are labelled using the following protocol. […] Cells are then centrifuged at 7000 rpm for 5 minutes and cell pellets are rinsed once in PBS. A secondary antibody is added, coupled to Alexa Fluor 488 (goat anti-rabbit IgG, Molecular Probes #A11008, 1/100), for one hour at room temperature. Cells are then centrifuged at 7000 rpm for 5 minutes and cell pellets are rinsed once in PBS. The labelling is increased adding a tertiary antibody coupled to Alexa Fluor 488 (chicken anti-goat IgG, Molecular Probes #A21467, 1/100) for one hour incubation, at room temperature. Cells are then rinsed once in PBS. Control without any antibody (unlabelled cells) is performed to determine the level of autofluorescence and adapted the sensitivity of the photomultiplicators. Control with both secondary and tertiary antibodies but without primary antibody, is performed to assess non specific binding of antibodies. Data acquisition and analysis are performed with a FACS Array cytometer and FACS Array software (Becton Dickinson) on 5000 cells. Forward Scatter (FSC) correlated with cell volume (size) and Side Scatter (SSC) depending on inner complexity of cells (granularity) are analysed. For expression of PMP22, analysis is performed within the total cells and percent of positive cells is calculated. Positive cells are cells with fluorescence intensity higher than the control with secondary antibody. We tested the ability of some drugs to inhibit PMP22 protein expression (FACS analysis). […] The results of the action of some individual drugs on the protein level of PMP22 are also shown on table 1 above.

[3] = test system: PMP22; settings: transgenic rodent models with over expression of PMP22; cited from earlier work

Row | SMILES | mRNA (PMP22 expression decrease) [1] | Protein (PMP22 expression decrease) [2] | PMP22 expression in the transgenic animals [3]
1 | NCC(CC(=O)O)c1ccc(Cl)cc1 (stereo not drawn) [Baclofen] | + | – | –
2 | O=C(O)Cc1ccccc1Nc1c(Cl)cccc1Cl [Diclofenac] | + | + | –
3 | CCN(CC)C(=S)SSC(=S)N(CC)CC [Disulfiram] | + | – | –
4 | C[C@]12CC[C@@H]3c4ccc(O)cc4CC[C@H]3[C@@H]1CC[C@@H]2O [Estradiol-b, Estradiol] | + | – | –
5 | CC(C)OC(=O)C(C)(C)Oc1ccc(C(=O)c2ccc(Cl)cc2)cc1 [Fenofibrate] | + | – | –
6 | CC(C(=O)O)c1ccc(-c2ccccc2)c(F)c1 (stereo not drawn) [Flurbiprofen] | + | + | –
7 | O=C(CCCN1CCC(O)(c2ccc(Cl)cc2)CC1)c1ccc(F)cc1 [Haloperidol] | + | – | –
8 | COc1ccc2c(c1)c(CC(=O)O)c(C)n2C(=O)c1ccc(Cl)cc1 [Indomethacin] | + | + | –
9 | CC(C)NCC(O)c1ccc(O)c(O)c1 (stereo not drawn) [Isoproterenol] | + | – | –
10 | CC(C(=O)O)c1cccc(C(=O)c2ccccc2)c1 (stereo not drawn) [Ketoprofen] | + | + | –
11 | Cc1cnc(NC(=O)C2=C(O)c3ccccc3S(=O)(=O)N2C)s1 [Meloxicam] | + | + | –
12 | CC#C[C@]1(O)CC[C@H]2[C@@H]3CCC4=CC(=O)CCC4=C3[C@@H](c3ccc(N(C)C)cc3)C[C@@]21C [Mifepristone] | + | – | –
13 | CC(C)(O)c1ccccc1CC[C@@H](SCC1(CC(=O)O)CC1)c1cccc(/C=C/c2ccc3ccc(Cl)cc3n2)c1 [Montelukast] | + | – | –
14 | O=C1CC[C@@]2(O)[C@H]3Cc4ccc(O)c5c4[C@@]2(CCN3CC2CC2)[C@H]1O5 [Naltrexone] | + | – | –
15 | CCC(C)(C)C(=O)O[C@H]1C[C@@H](C)C=C2C=C[C@H](C)[C@H](CC[C@@H]3C[C@@H](O)CC(=O)O3)[C@H]21 [Simvastatin] | + | – | –
16 | OC[C@@H](O)[C@@H](O)[C@H](O)[C@@H](O)CO [Sorbitol, D-Sorbitol] | + | – | –
17 | C[C@]12CC[C@H]3[C@@H](CC[C@@]45O[C@@H]4C(O)=C(C#N)C[C@]35C)[C@@H]1CC[C@@H]2O [Trilostane] | + | – | –
18 | O=C1O[C@H]([C@@H](O)CO)C(O)=C1O [ascorbic acid] | – | – | decreased this expression
19 | CN(C)c1ccc([C@H]2C[C@]3(C)[C@@H](CC[C@]3(O)CCCO)[C@@H]3CCC4=CC(=O)CCC4=C32)cc1 [onapristone] | – | – | decreased this expression
